{"source": "paper PMC8445934", "about": "“Transformation of tenofovir into stable ProTide nanocrystals with long-acting pharmacokinetic profiles” (Nature Communications, 2021)", "key": {"[1]": {"test": "Prodrug chemical stability of dissociated nanoformulations in pH 2.0-10.3 buffers", "assay_type": "physicochemical", "conditions": "buffers pH 2.0-10.3, 24 h", "procedure": "The mixtures were centrifuged at 16,000 × g for 10 min. The supernatants were aspirated and stored at −80 °C until ultraperformance liquid chromatography tandem mass spectrometry (UPLC-MS/MS) analysis."}, "HIV-1ADA [2]": {"tested_on": "HIV-1ADA", "test": "Antiretroviral EC50/IC50 in MDM by HIV-1 RT activity after HIV-1ADA challenge", "assay_type": "cell-based", "conditions": "for RT activity (cpm/ mL): replicate wells", "procedure": "(§1) To determine long-term antiretroviral efficacy following a single treatment, MDMs were plated in flat-bottom 12-well plates at a density of 1.2 × 10^6 cells/well. […] After treatment, the cells were washed twice with PBS and cultured in a fresh culture medium without drug with half-media replacement every other day. On days 1, 5, 10, 15, 20, 25, and 30 following treatment, the cells were infected with HIV-1ADA (a macrophage-tropic viral strain) at a multiplicity of infection of 0.1 infectious particles/cell for 8 h. MDM were cultured, and media samples collected on day 10 for the measurement of HIV reverse transcriptase (RT) activity as previously described[64],[65]. Cells were fixed in 2% PFA at each time point, and expression of the HIV-1p24 antigen was determined by immunocytochemistry. […] After 4 h of viral challenge, the cells were washed with PBS and given fresh media that contained the same concentrations of drug (0.00005–5,000 nM). Cell supernatants were collected 10 days later and assayed for HIV-1 RT activity as described above. Replicate studies were performed in CEM-ss CD4+ T-cell cultures. Specifically, cells were plated in 96-well plates, centrifuged at 650 × g for 5 min, and resuspended in (0.1–1,000 nM) drug-containing media for 1 h. The subsequent challenge with HIV-1NL4–3-eGFP, cell culture, sample collection, and determination of HIV-1 RT activity were performed as previously reported[13],[15]."}, "human MDM": {"tested_on": "human MDM", "conditions": "for prodrug measurements (uptake) / prodrug measurements (retention): 10 uM; for prodrug measurements (uptake): replicates; for prodrug measurements (retention): MDM", "procedure": "Human MDMs were used for in vitro formulation assessments. MDM formulation uptake and retention studies were performed in flat-bottom, 12-well plates at a density of 1.2 × 10^6 cells/well, with each treatment completed in triplicate. […] At 2, 4, and 8 h after treatment, the cells were collected, processed, and analyzed for drug content by UPLC-UV/vis as previously described[12],[13],[56],[63]. […] Then, a culture medium (without drug) was added, and a half-media volume was replaced every other day. MDMs were collected at days 1, 5, 10, 15, and 30 after treatment, and then analyzed for intracellular drug content by UPC-UV/vis. […] MDMs were then collected immediately after the 8 h treatment and analyzed by an FEI Tecnai G2 Spirit transmission electron microscope as previously described[11],[12],[14].\nIntracellular TFV-DP was extracted from human MDM or rat PBMCs as follows. […] At 2, 4, and 8 h after treatment, MDM was washed with PBS to remove the excess free drug. The cells were then collected in 70% MS-grade MeOH. TFV-DP from MDM was extracted as follows. Sep-Pak QMA cartridges (360 mg, 37–55 μm; Waters, Milford, MA) were used to separate TFV-DP from TFV- and mono-phosphate counterparts. The QMA cartridges were conditioned with 10 ml of 500 mM KCl, followed by 10 ml of 5 mM KCl. The sample (200 μL) was loaded onto the cartridges and washed with 12 ml of 75 mM KCl. The triphosphate (TP) fraction was eluted with 3 ml of 500 mM KCl. The pH of the TP fraction was lowered to 4.25 by adding 45 μl ammonium acetate buffer (pH 4, 10 mM) per ml eluate, and dephosphorylated by adding one unit of type XA sweet potato acid phosphatase (Sigma-Aldrich) per ml eluate (3 μL per sample) and incubating at 37 °C for 45 min. […] Samples were then loaded onto Waters OASIS HLB cartridges (60 mg, 30 μm; Waters, Milford, MA) pre-conditioned with 3 ml 100% methanol followed by 3 ml 1% TFA to remove salts. Salts were removed from the dephosphorylated samples with 3.5 ml of 1% TFA in water, then eluted with 1.5 ml 100% methanol and evaporated under vacuum. Once dry, the residue was stored at −80 °C until UPLC–MS/MS analyses. Samples were reconstituted in 100 μL of 10% MeOH, 90% 7.5 mM ammonium bicarbonate pH 7 in LC-MS grade water.\nTFV-DP: Parent TFV was generated from TFV-DP during sample preparation and then subjected to UPLC-MS/MS analyses. The UPLC-MS/MS system was comprised of a Waters ACQUITY UPLC system coupled to a Waters Xevo TQ-XS triple quadrupole mass spectrometer (Waters, Milford, MA) with electrospray ionization (ESI) source. A CSH C18 analytical column (2.1 × 100 mm, 1.7 µm) equipped with a guard column (Waters, Milford, MA) at 30 °C was used for analyte separation. Samples were maintained at 4 °C during analysis. […] Mobile phase A consisted of 7.5 mM ammonium bicarbonate in water (MS grade, Fisher) with pH adjusted to 7.0 with glacial acetic acid (ACS grade, Sigma). Mobile phase B was 100% methanol (MS grade, Fisher). The flow rate was 0.22 mL/min. […] B was then held at 90% for 0.4 min before returning to initial conditions. Spectra were analyzed and quantified by MassLynx software version 4.1. Quantitation was based upon drug peak area to internal standard peak area ratios."}, "HIV-1ADA [3]": {"tested_on": "HIV-1ADA", "test": "Long-term antiretroviral efficacy in MDM after single 8 h treatment (HIV-1 RT activity, p24)", "assay_type": "cell-based", "conditions": "for HIV-1 RT activity: MDM, 10 µM (Figure 4D)", "procedure": "as §1"}, "CEM-ss T-cells": {"tested_on": "CEM-ss T-cells", "conditions": "replicates", "procedure": "Supplementary Fi gur e 9. ProTide Biological Characterizations. […]\none- way analysis of variance (ANOVA) followed by Tukey’s post hoc test was used to compare the prodrug and TFV-DP levels among three treatment groups (*P ≤ 0.05, **P < 0.01, […]\n(0.0001– 1000 nM) and determined by HIV-1 reverse transcriptase (RT) activity after viral challenge with HIV -1ADA at an MOI of 0.1. Data was normalized and expressed as percentage of HIV-1 control ± SEM; N = 4.\n(1 picture or pasted object on this page, not shown here)"}}, "note": "Where “and” joins values, the source holds several entries; their conditions need not be identical. Equal entries are not always repeated. Where two headings read alike, the source gives them in different places.", "data": [{"smiles": "CC(C)OC(=O)[C@H](C)N[P@](=O)(CO[C@H](C)Cn1cnc2c(N)ncnc21)Oc1ccccc1", "note": "[TAF, tenofovir alafenamide]", "values": [{"measurement": "hydrolytic stability across pH", "setting": "[1]", "value": "hydrolytically unstable at basic pH"}, {"measurement": "EC50", "setting": "HIV-1ADA [2]; Human immunodeficiency virus 1, 240 h", "value": 0.22, "unit": "nM"}, {"measurement": "RT activity (cpm/ mL)", "setting": "HIV-1ADA [2]; drug concentration 5e-6 nM", "value": "29.681 cpm/ mL and 30.024 cpm/ mL and 28.68 cpm/ mL"}, {"measurement": "RT activity (cpm/ mL)", "setting": "HIV-1ADA [2]; drug concentration 5e-5 nM", "value": "35.114 cpm/ mL and 41.925 cpm/ mL and 38.687 cpm/ mL"}, {"measurement": "RT activity (cpm/ mL)", "setting": "HIV-1ADA [2]; drug concentration 0.0005 nM", "value": "33.176 cpm/ mL and 39.763 cpm/ mL and 30.439 cpm/ mL"}, {"measurement": "RT activity (cpm/ mL)", "setting": "HIV-1ADA [2]; drug concentration 0.005 nM", "value": "15.954 cpm/ mL and 19.78 cpm/ mL and 30.439 cpm/ mL"}, {"measurement": "RT activity (cpm/ mL)", "setting": "HIV-1ADA [2]; drug concentration 0.05 nM", "value": "13.503 cpm/ mL and 38.469 cpm/ mL"}, {"measurement": "RT activity (cpm/ mL)", "setting": "HIV-1ADA [2]; drug concentration 0.5 nM", "value": "16.77 cpm/ mL and 16.849 cpm/ mL and 12.873 cpm/ mL"}, {"measurement": "RT activity (cpm/ mL)", "setting": "HIV-1ADA [2]; drug concentration 5 nM", "value": "0.361 cpm/ mL and 0.448 cpm/ mL and 0.415 cpm/ mL"}, {"measurement": "RT activity (cpm/ mL)", "setting": "HIV-1ADA [2]; drug concentration 50 nM", "value": "0.452 cpm/ mL and 0.242 cpm/ mL"}, {"measurement": "RT activity (cpm/ mL)", "setting": "HIV-1ADA [2]; drug concentration 500 nM", "value": "0.23 cpm/ mL and 0.324 cpm/ mL and 0.407 cpm/ mL"}, {"measurement": "RT activity (cpm/ mL)", "setting": "HIV-1ADA [2]; drug concentration 5000 nM", "value": "0.233 cpm/ mL and 0.252 cpm/ mL and 0.245 cpm/ mL"}, {"measurement": "time by which no drug was detectable in MDM", "setting": "human MDM; 10 μM", "value": "≤ 24", "unit": "h"}, {"measurement": "prodrug measurements (uptake)", "setting": "human MDM; 2 hours", "value": "2.762 and 0.9713 and 2.037"}, {"measurement": "prodrug measurements (uptake)", "setting": "human MDM; 4 hours", "value": 0.3098}, {"measurement": "Intracellular prodrug concentration", "setting": "human MDM; 10 μM, 8 h", "value": 0.38, "unit": "μg/10^6 cells"}, {"measurement": "prodrug measurements (uptake)", "setting": "human MDM; 8 hours", "value": 0.3813}, {"measurement": "prodrug measurements (retention)", "setting": "human MDM; day 1, replicates", "value": 0}, {"measurement": "prodrug measurements (retention)", "setting": "human MDM; day 5, replicates", "value": 0}, {"measurement": "prodrug measurements (retention)", "setting": "human MDM; day 10, replicates", "value": 0}, {"measurement": "prodrug measurements (retention)", "setting": "human MDM; day 15, replicates", "value": 0}, {"measurement": "prodrug measurements (retention)", "setting": "human MDM; day 30, replicates", "value": 0}, {"measurement": "viral breakthrough", "setting": "HIV-1ADA [3]; 10 μM, day 30", "value": "complete viral breakthrough"}, {"measurement": "inhibition at 10 µM", "setting": "HIV-1ADA [3]; Human immunodeficiency virus 1, 240 h, read-out: viral inhibition", "value": 84.5, "unit": "%"}, {"measurement": "HIV-1 RT activity", "setting": "HIV-1ADA [3]; challenge day 1, replicates", "value": "1.694 % of postive control and 1.963 % of postive control and 1.344 % of postive control and 1.665 % of postive control and 1.247 % of postive control and 0.8808 % of postive control"}, {"measurement": "HIV-1 RT activity", "setting": "HIV-1ADA [3]; challenge day 5, replicates", "value": "1.516 % of postive control and 1.942 % of postive control and 1.963 % of postive control and 1.828 % of postive control and 2.306 % of postive control and 0.4466 % of postive control"}, {"measurement": "HIV-1 RT activity", "setting": "HIV-1ADA [3]; challenge day 10, replicates", "value": "13.8971 % of postive control and 15.2412 % of postive control and 16.845 % of postive control and 11.6649 % of postive control and 19.6336 % of postive control and 17.0654 % of postive control"}, {"measurement": "HIV-1 RT activity", "setting": "HIV-1ADA [3]; challenge day 15, replicates", "value": "10.4755 % of postive control and 3.747 % of postive control and 7.537 % of postive control and 13.2434 % of postive control and 32.8105 % of postive control"}, {"measurement": "HIV-1 RT activity", "setting": "HIV-1ADA [3]; challenge day 30, replicates", "value": "86.3496 % of postive control and 48.9086 % of postive control and 79.0354 % of postive control and 54.8629 % of postive control"}, {"measurement": "Prodrug measurements, CEM-ss cells", "setting": "CEM-ss T-cells; 2 hours", "value": "0.09778 and 0.1063 and 0.08772"}, {"measurement": "Prodrug measurements, CEM-ss cells", "setting": "CEM-ss T-cells; 4 hours", "value": "0.113 and 0.1292 and 0.1331"}, {"measurement": "Prodrug measurements, CEM-ss cells", "setting": "CEM-ss T-cells; 8 hours", "value": "0.2769 and 0.2544 and 0.2424"}]}]}
